Measured values taken from patent US20250186627A1, “RADIOLABELED COMPOUNDS TARGETING THE PROSTATE-SPECIFIC MEMBRANE ANTIGEN” (PROVINCIAL HEALTH SERVICES AUTHORITY, priority 2022, published 2025).
*1 amine or outer side, *2 acyl side, *3 side chain or, on linkers, in order; H or OH if unused. Where a SMILES comes first, the peptide text is derived from it. [ ]: non-standard residue; d: D form. The star is where a group is joined. AadUreaLys(Nε) = O=C(O)CCC[C@H](NC(=O)N[C@@H](CCCCN*)C(=O)O)C(=O)O; X4 = O=C(N[C@@H](CCCCN*)C(=O)O)N[C@@H](C[C@@H](F)C(=O)O)C(=O)O; Butanoyl(4-(4-NO2Ph)) = O=C(CCCc1ccc([N+](=O)[O-])cc1)*; DOTA = O=C(O)CN1CCN(CC(=O)O)CCN(CC(=O)*)CCN(CC(=O)O)CC1; EuK = O=C(O)CC[C@H](NC(=O)N[C@@H](CCCCN*)C(=O)O)C(=O)O; Ala(9-anthryl) = N[C@@H](Cc1c2ccccc2cc2ccccc12)C(=O)O; Butanoyl(4-(4-MeO-phenyl)) = COc1ccc(CCCC(=O)*)cc1; X1 = O=C(C1CCC(CN[*:1])CC1)[*:2]; X3 = O=C(C1CCC(N[*:1])CC1)[*:2]

Tests used:
PSMA = biological target: T1, PSMA (Homo sapiens, UniProt Q04609); assay: In vitro PSMA competitive binding assay, LNCaP cells, [18F]DCFPyL radioligand; settings: [18F]DCFPyL 0.1 nM, read-out: PSMA binding affinity (Ki)
T1 construct: endogenous in cells; host or cells: LNCaP cells
Experimental: Inhibition constants (Ki) to PSMA were measured by in vitro competition binding assays using [^18F]DCFPyL as the radioligand. LNCaP cells which were plated onto a 24-well poly-D-lysine coated plate for 48 h (400,000/well). Growth medium was removed and replaced with HEPES buffered saline (50 mM HEPES, pH 7.5, 0.9% sodium chloride). After 1 h, [^18F]DCFPyL (0.1 nM) was added to each well (in triplicate) containing varied concentrations ([…]) of tested compounds The assay mixtures were incubated for 1 h at 37° C. with gentle agitation followed by two washes with cold HEPES buffered saline. A trypsin solution (0.25%, 400 μL) was then added to each well to harvest the cells. Radioactivity was measured by gamma counting and Ki values calculated using the ‘one site—fit Ki’ built-in model in Prism 8 (GraphPad).

Human serum albumin = biological target: T2, Human serum albumin (Homo sapiens, UniProt P02768); assay: Human serum albumin binding assay (Transil HSA binding kit); settings: read-out: Human albumin binding affinity (Kd)
T2 construct: purchased Sovicell
Experimental: Human serum albumin binding assay was performed using Transil HSA binding kit (Sovicell) according to manufacturer's recommended procedures.

T1 sequence (Q04609 whole entry): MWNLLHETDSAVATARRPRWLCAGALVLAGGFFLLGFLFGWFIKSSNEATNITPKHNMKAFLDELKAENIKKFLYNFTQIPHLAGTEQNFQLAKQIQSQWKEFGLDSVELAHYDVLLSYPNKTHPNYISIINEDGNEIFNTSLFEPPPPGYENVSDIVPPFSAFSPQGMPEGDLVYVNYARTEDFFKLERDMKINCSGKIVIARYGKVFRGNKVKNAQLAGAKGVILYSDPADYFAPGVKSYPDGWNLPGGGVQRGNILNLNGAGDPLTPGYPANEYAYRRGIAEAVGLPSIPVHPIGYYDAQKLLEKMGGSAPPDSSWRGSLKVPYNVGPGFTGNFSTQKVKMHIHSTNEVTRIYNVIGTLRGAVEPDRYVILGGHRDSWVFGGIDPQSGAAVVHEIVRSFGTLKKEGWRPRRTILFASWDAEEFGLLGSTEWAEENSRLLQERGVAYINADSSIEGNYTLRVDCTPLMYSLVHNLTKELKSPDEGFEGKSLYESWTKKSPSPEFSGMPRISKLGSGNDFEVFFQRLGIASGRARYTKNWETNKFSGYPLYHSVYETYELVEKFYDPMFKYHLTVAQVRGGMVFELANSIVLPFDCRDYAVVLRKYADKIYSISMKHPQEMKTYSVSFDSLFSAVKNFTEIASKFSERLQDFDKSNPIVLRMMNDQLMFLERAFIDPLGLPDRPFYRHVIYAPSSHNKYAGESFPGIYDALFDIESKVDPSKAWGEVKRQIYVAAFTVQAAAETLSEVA
T2 sequence (P02768 25-609): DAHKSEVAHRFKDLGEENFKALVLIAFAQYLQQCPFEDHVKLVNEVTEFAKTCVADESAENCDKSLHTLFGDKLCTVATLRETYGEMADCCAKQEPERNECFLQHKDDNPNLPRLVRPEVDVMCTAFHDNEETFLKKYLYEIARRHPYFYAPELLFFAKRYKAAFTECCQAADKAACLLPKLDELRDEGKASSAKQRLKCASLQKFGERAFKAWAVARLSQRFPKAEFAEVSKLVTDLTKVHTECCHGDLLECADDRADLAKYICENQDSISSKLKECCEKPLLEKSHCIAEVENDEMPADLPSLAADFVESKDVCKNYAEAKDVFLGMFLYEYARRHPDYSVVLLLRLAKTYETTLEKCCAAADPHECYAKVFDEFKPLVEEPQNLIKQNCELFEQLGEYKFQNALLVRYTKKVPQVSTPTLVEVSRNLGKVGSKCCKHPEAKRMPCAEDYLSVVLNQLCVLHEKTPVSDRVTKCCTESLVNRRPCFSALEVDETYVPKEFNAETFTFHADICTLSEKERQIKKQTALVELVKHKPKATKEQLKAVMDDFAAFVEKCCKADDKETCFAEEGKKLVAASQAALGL

| Ki (PSMA) [nM] | Kd (Human serum albumin) [nM] | Structure (SMILES) |
| --- | --- | --- |
| 1.09 ± 0.19 |  | COc1ccc(CCCC(=O)NCC(=O)N[C@@H](CCCCNC(=O)CN2CCN(CC(=O)O)CCN(CC(=O)O)CCN(CC(=O)O)CC2)C(=O)NCC(=O)NCC(=O)NCC2CCC(C(=O)N[C@@H](Cc3c4ccccc4cc4ccccc34)C(=O)NCCCC[C@H](NC(=O)N[C@@H](CCCC(=O)O)C(=O)O)C(=O)O)CC2)cc1 (stereo partly shown) [CCZ02060] ({Butanoyl(4-(4-MeO-phenyl))}-GK(DOTA)GG[X1][Ala(9-anthryl)]-{AadUreaLys(Nε)}) |
| 1.54 |  | O=C(O)CC[C@H](NC(=O)N[C@@H](CCCCNC(=O)[C@H](Cc1c2ccccc2cc2ccccc12)NC(=O)C1CCC(CNC(=O)CNC(=O)[C@H](CCCCNC(=O)CN2CCN(CC(=O)O)CCN(CC(=O)O)CCN(CC(=O)O)CC2)NC(=O)CNC(=O)CCCc2ccc([N+](=O)[O-])cc2)CC1)C(=O)O)C(=O)O (stereo partly shown) [CCZ02024] ({Butanoyl(4-(4-NO2Ph))}-GK(DOTA)G[X1][Ala(9-anthryl)]-EuK) |
| 0.59 |  | O=C(O)CN1CCN(CC(=O)O)CCN(CC(=O)NCCCC[C@H](NC(=O)CNC(=O)CCCc2ccc([N+](=O)[O-])cc2)C(=O)NCC(=O)NCC2CCC(C(=O)N[C@@H](Cc3c4ccccc4cc4ccccc34)C(=O)NCCCC[C@H](NC(=O)N[C@@H](C[C@@H](F)C(=O)O)C(=O)O)C(=O)O)CC2)CCN(CC(=O)O)CC1 (stereo partly shown) [CCZ02025] ({Butanoyl(4-(4-NO2Ph))}-GK(DOTA)G[X1][Ala(9-anthryl)]-X4) |
| 1.53 ± 0.21 |  | O=C(O)CCC[C@H](NC(=O)N[C@@H](CCCCNC(=O)[C@H](Cc1c2ccccc2cc2ccccc12)NC(=O)C1CCC(NC(=O)CN2CCN(CC(=O)O)CCN(CC(=O)O)CCN(CC(=O)O)CC2)CC1)C(=O)O)C(=O)O (stereo partly shown) [CCZ02013] |
| 5.71 |  | O=C(O)CCC[C@H](NC(=O)N[C@@H](CCCCNC(=O)[C@H](Cc1c2ccccc2cc2ccccc12)NC(=O)C1CCC(NC(=O)CNC(=O)[C@H](CCCCNC(=O)CN2CCN(CC(=O)O)CCN(CC(=O)O)CCN(CC(=O)O)CC2)NC(=O)CNC(=O)CCCc2ccc([N+](=O)[O-])cc2)CC1)C(=O)O)C(=O)O (stereo partly shown) [CCZ02021] ({Butanoyl(4-(4-NO2Ph))}-GK(DOTA)G[X3][Ala(9-anthryl)]-{AadUreaLys(Nε)}) |
| 1.53 ± 0.33 | 70100 ± 3200 | COc1ccc(CCCC(=O)NCC(=O)N[C@@H](CCCCNC(=O)CN2CCN(CC(=O)O)CCN(CC(=O)O)CCN(CC(=O)O)CC2)C(=O)NCC2CCC(C(=O)N[C@@H](Cc3c4ccccc4cc4ccccc34)C(=O)NCCCC[C@H](NC(=O)N[C@@H](CCCC(=O)O)C(=O)O)C(=O)O)CC2)cc1 (stereo partly shown) [HTK03170, reference compound] |
| 0.12 ± 0.02 | 64900 ± 2200 | COc1ccc(CCCC(=O)NCC(=O)N[C@@H](CCCCNC(=O)CN2CCN(CC(=O)O)CCN(CC(=O)O)CCN(CC(=O)O)CC2)C(=O)NCC(=O)NCC2CCC(C(=O)N[C@@H](Cc3c4ccccc4cc4ccccc34)C(=O)NCCCC[C@H](NC(=O)N[C@@H](CCCC(=O)O)C(=O)O)C(=O)O)CC2)cc1 (stereo partly shown) [CCZ02009] ({Butanoyl(4-(4-MeO-phenyl))}-GK(DOTA)G[X1][Ala(9-anthryl)]-{AadUreaLys(Nε)}) |
| 1.09 ± 0.3 |  | COc1ccc(CCCC(=O)NCC(=O)N[C@@H](CCCCNC(=O)CN2CCN(CC(=O)O)CCN(CC(=O)O)CCN(CC(=O)O)CC2)CC(=O)NCC2CCC(C(=O)N[C@@H](Cc3c4ccccc4cc4ccccc34)C(=O)NCCCC[C@H](NC(=O)N[C@@H](CCCC(=O)O)C(=O)O)C(=O)O)CC2)cc1 (stereo partly shown) [CCZ02015] |
| 2.08 |  | COc1ccc(CCCC(=O)NCC(=O)N[C@@H](CCCCNC(=O)COCCOCCNC(=O)CN2CCN(CC(N)=O)CCN(CC(=O)O)CCN(CC(=O)O)CC2)C(=O)NCC2CCC(C(=O)N[C@@H](Cc3c4ccccc4cc4ccccc34)C(=O)NCCCC[C@H](NC(=O)N[C@@H](CCCC(=O)O)C(=O)O)C(=O)O)CC2)cc1 (stereo partly shown) [CCZ02005] |
| 2.82 |  | O=C(O)CCC[C@H](NC(=O)N[C@@H](CCCCNC(=O)[C@H](Cc1c2ccccc2cc2ccccc12)NC(=O)C1CCC(CNC(=O)CNC(=O)[C@H](CCCCNC(=O)CN2CCOCCN(CC(=O)O)CCN(CC(=O)O)CCOCCN(CC(=O)O)CC2)NC(=O)CNC(=O)CCCc2ccc([N+](=O)[O-])cc2)CC1)C(=O)O)C(=O)O (stereo partly shown) [CCZ02034] |
| 1.67 |  | O=C(O)CCC[C@H](NC(=O)N[C@@H](CCCCNC(=O)[C@H](Cc1c2ccccc2cc2ccccc12)NC(=O)C1CCC(NC(=O)CN2CCN(CC(=O)O)CCN(CC(=O)O)CCN(CC(=O)O)CC2)CC1)C(=O)O)C(=O)O (stereo partly shown) [CCZ02012] |
| 0.48 ± 0.1 |  | COc1ccc(CCCC(=O)NCC(=O)N[C@@H](CCCCNC(=O)CN2CCN(CC(=O)O)CCN(CC(=O)O)CCN(CC(=O)O)CC2)C(=O)NCC(=O)NCC2CCC(C(=O)N[C@@H](Cc3c4ccccc4cc4ccccc34)C(=O)NCCCC[C@H](NC(=O)N[C@@H](C[C@@H](F)C(=O)O)C(=O)O)C(=O)O)CC2)cc1 (stereo partly shown) [CCZ02008] ({Butanoyl(4-(4-MeO-phenyl))}-GK(DOTA)G[X1][Ala(9-anthryl)]-X4) |
| 11.2 |  | O=C(O)CCC[C@H](NC(=O)N[C@@H](CCCCNC(=O)[C@H](Cc1c2ccccc2cc2ccccc12)NC(=O)C1CCC(NC(=O)CNC(=O)C[C@H](CCCCNC(=O)CN2CCN(CC(=O)O)CCN(CC(=O)O)CCN(CC(=O)O)CC2)NC(=O)CNC(=O)CCCc2ccc([N+](=O)[O-])cc2)CC1)C(=O)O)C(=O)O (stereo partly shown) [CCZ02022] |

| Structure (SMILES) | Ki (PSMA) [nM] | Kd (Human serum albumin) [nM] |
| --- | --- | --- |
| COc1ccc(CCCC(=O)NCC(=O)N[C@@H](CCCCNC(=O)CN2CCN(CC(=O)O)CCN(CC(=O)O)CCN(CC(=O)O)CC2)C(=O)NCC(=O)NCC(=O)NCC(=O)NCC(=O)NCC2CCC(C(=O)N[C@@H](Cc3c4ccccc4cc4ccccc34)C(=O)NCCCC[C@H](NC(=O)N[C@@H](CCCC(=O)O)C(=O)O)C(=O)O)CC2)cc1 (stereo partly shown) [CCZ02059] ({Butanoyl(4-(4-MeO-phenyl))}-GK(DOTA)GGGG[X1][Ala(9-anthryl)]-{AadUreaLys(Nε)}) | 10.8 ± 3.28 |  |
